The target in series [1] is T1, MT2 (Homo sapiens, UniProt P49286).
T1 sequence (P49286 1-362): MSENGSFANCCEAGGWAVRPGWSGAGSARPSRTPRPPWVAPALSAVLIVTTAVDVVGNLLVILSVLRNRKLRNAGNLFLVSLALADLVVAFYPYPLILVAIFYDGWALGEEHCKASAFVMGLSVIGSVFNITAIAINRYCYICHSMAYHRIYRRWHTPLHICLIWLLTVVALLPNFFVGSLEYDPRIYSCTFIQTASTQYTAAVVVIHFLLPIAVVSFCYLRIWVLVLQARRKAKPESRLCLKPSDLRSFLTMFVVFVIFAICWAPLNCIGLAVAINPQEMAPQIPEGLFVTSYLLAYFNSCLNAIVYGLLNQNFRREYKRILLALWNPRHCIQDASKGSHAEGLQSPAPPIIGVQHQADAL
In words: biochemical. Particulars: for Ki: MT2 Ki, calculated from mean pIC50 (Cheng-Prusoff), 1 nM [3H]melatonin, intact CHO cells; for Emax: read-out: MT2 %Resp±SEM (percentage of melatonin-mediated displacement of radioligand binding).
Method: (§5) Competitive receptor binding characteristics of melatonin and the 15 tested compounds towards human MT1 and MT2 stably expressed in Chinese hamster ovary (CHO) cells were determined using intact cell preparation pre-incubated with 1 nM [^3H]melatonin.
(§6) Individual melatonin receptor subtype (either MT1 or MT2) was stably co-expressed with a G protein chimera 16z25 in Chinese hamster ovary (CHO) cells, hereafter denoted as CHO-hMT1 and CHO-hMT2, respectively. […] Single cell-derived colonies of the stable lines with sufficiently high receptor density and robust responses in the fluorometric assay (as described below) were isolated from the pool of transfected cell. Usage of these clonal lines was limited to 15 passages to prevent degradation of signal detection.
(§7) Competitive binding assays were performed as described [26]. Cells were suspended in binding buffer (50 mM Tris, 2 mM MgCl2, 1 mM EGTA, pH 7.4) in the density of 1.5×10^5 cell/ml. 1 nM [^3H]melatonin and increasing concentrations of a tested compound was included. Cells were incubated at 4°C for 60 min with intermittent agitation and the reaction was stopped by rapid filtration through GF/C filters pre-soaked in 10 mM Tris, pH 7.4 and washed with 1 ml of prechilled binding buffer. Retained radioactivity was measured with Wallac 1450 Microbeta Jet scintillation counter. Competition curves were drawn as one-site competition nonlinear regression model using GraphPad Prism 3.03 to the data which were means ± SEM of 3–4 independent experiments performed in duplicates. In every assay, melatonin was included as standard reference with highly reproducible Ki values, which were calculated using the Cheng-Prusoff equation.

Series [2] addresses T2, MT1 (Homo sapiens, UniProt P48039). Particulars: for MT1 pIC50±SEM: 4°C 60 min, mean ± SEM of 3–5 trials, NSB = no specific binding for up to 30 µM.
Method: as §5, §6, §7
Series [3] addresses T1, MT2. Briefly: Intracellular Ca2+ mobilization (FLIPR) in MT2-CHO cells co-expressing 16z25. In kind it is cell-based. Also on record: expressed in transfected cells. Particulars: for Emax: percentage of melatonin (MT)-mediated stimulation of Ca2+ signal, read-out: MT2 %Resp ±SEM, Ca2+ signal. The method, then:
(§1) Tested compounds in different concentrations were diluted in assay buffer in 5× of the final desired concentrations in a V-bottomed microplate, and both the cell and compound plates were put into the fluorometric imaging plate reader FLIPR^TETRA (Molecular Devices, Sunnyvale, CA). […] The peak of the time course of fluorescence changes was expressed in relative fluorescence units (RFU). Dose response curves were constructed by non-linear regression using GraphPad Prism 3.

For series [4], the target named is T1, MT2. Particulars: for displacement of pre-incubated [3H]melatonin at MT2 (in words): competitive binding, intact CHO cells.
Method: as §5, §6, §7
Series [5] deals with T1, MT2. In words: Inhibition of forskolin-stimulated cAMP accumulation in MT2-CHO cells. Conditions: for IC50: MT2-CHO cells, 50 µM forskolin, calculated from mean pIC50, read-out: MT2 IC50, inhibition of cAMP production; for MT2 %Inhmax ±SEM: maximal percentage inhibition of the forskolin-elevated cAMP level, MT2-CHO. Also on record: expressed in transfected cells. In kind it is cell-based. On the procedure: (§2) Both MT1 and MT2 are classified as Gi-coupled receptors with their activation leading to inhibition of intracellular cAMP production. The ability of the tested compounds to activate the endogenously expressed Gi-mediated inhibition of cAMP production was therefore examined.
(§3) All the responses were expressed as the percentage of that induced by forskolin alone (as 100%).
(§4) 2×10^5 cells were seeded in each well of 12-well plates and grown for overnight. Each well was labeled with 1 ml of [^3H]adenine (1 µCi/ml) in F-12K medium containing 1% FBS (vol/vol) for overnight. The labeling media were then replaced by 1 ml of 20 mM HEPES-buffered F-12K containing 1 mM isobutylmethylxanthine (IBMX) and the tested compounds at desired concentrations, and incubated at 37°C for 30 min. The reaction was stopped by aspiration and adding 1 ml prechilled 5% trichloroacetic acid (w/v) with 1 mM ATP, and stored at 4°C for 30 min. [^3H]cAMP was extracted from the pool of labeled adenosine nucleotides by sequential ion-exchange chromatography as previously described. The radioactivity of labeled cAMP and total labeled nucleotide fractions separated by chromatography were estimated by scintillation counting. Inhibition curves were constructed by non-linear regression using GraphPad Prism 3.

Series [6] addresses T2, MT1. Briefly: Intracellular Ca2+ mobilization (FLIPR) in MT1-CHO cells co-expressing 16z25. Format: cell-based. The arrangement: expressed in transfected cells. Particulars: for Ca2+ mobilization activity at MT1 (in words): MT1-CHO cells, maximal concentration tested 10 µM. The method, then:
as §1

Series [7] concerns the target T2, MT1. Briefly: Inhibition of forskolin-stimulated cAMP accumulation in MT1-CHO cells. Also on record: expressed in transfected cells. Format: cell-based. Particulars: for MT1 IC50, inhibition of cAMP production: MT1-CHO cells, 50 µM forskolin, calculated from mean pIC50, NSR = no significant response for up to 10 µM; for MT1 %Inhmax ±SEM: maximal percentage inhibition of the forskolin-elevated cAMP level, MT1-CHO. The method, then:
as §2, §3, §4

In series [8] the target is T2, MT1. In words: biochemical. Conditions: for Emax: read-out: MT1 %Resp±SEM (percentage of melatonin-mediated displacement of radioligand binding).
Method: as §5, §6, §7
The mark [9] stands for this setting: 1 nM [3H]melatonin, intact CHO cells.
Setting [10] is: MT2-CHO cells, FLIPR, calculated from mean pEC50, NSR = no significant response for up to 30 µM, read-out: MT2 EC50, Ca2+ mobilization.

Where “and” joins values, the source holds several entries; their conditions need not be identical. Identical values can stand only once. Entries after “also recorded” stand apart in the source; their conditions may differ. Like-named read-outs stand apart in the source and are kept apart here. Bounds are passed on as bounds.
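For MT1 %Resp±SEM (percentage of melatonin-mediated displacement of radioligand binding) in this document: competitive radioligand displacement on intact CHO cells stably co-expressing human MT1 together with the G protein chimera 16z25, using rising concentrations of each compound.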
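For MT1 pIC50±SEM in this document: competitive radioligand displacement on intact CHO cells stably co-expressing human MT1 together with the G protein chimera 16z25, using rising concentrations of each compound.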
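For Selectivity, ratio Ki(MT1)/Ki(MT2) in this document: competition binding on intact CHO cells stably co-expressing human MT2 with G protein chimera 16z25, displacing [3H]melatonin at 4°C over 60 min, melatonin run as reference.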
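For displacement of pre-incubated [3H]melatonin at MT2 (in words) in this document: competition binding on intact CHO cells stably co-expressing human MT2 with G protein chimera 16z25, displacing [3H]melatonin at 4°C over 60 min, melatonin run as reference.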
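For selectivity toward MT2 over MT1 in this document: competition binding on intact CHO cells stably co-expressing human MT2 with G protein chimera 16z25, displacing [3H]melatonin at 4°C over 60 min, melatonin run as reference.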

T2 sequence (P48039 whole entry): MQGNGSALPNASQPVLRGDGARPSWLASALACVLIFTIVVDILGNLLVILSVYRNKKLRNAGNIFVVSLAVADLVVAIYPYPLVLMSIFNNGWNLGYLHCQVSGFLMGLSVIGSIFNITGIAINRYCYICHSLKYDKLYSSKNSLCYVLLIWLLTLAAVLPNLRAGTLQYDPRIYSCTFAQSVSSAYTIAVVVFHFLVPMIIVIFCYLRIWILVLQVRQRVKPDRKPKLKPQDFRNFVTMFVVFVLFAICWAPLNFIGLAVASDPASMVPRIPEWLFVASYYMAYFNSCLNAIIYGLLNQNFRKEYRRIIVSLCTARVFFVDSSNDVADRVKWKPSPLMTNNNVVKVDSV

With `COc1cc2c(=O)n(C)ccc2cc1OCc1ccccc1` [7a, 6-Benzyloxy-7-methoxy-2-methylisoquinolin-1(2H)-one], the melting point was 102 to 104 °C. Besides, in series [1], the IC50 is 2820 nM, the Ki was 852 nM and the Emax was determined as 78 ± 7%. Besides, the “MT1 pIC50±SEM” value in series [2] (setting [9]) is given as “NSB ^c”. In addition, the EC50 in series [3] (setting [10]) is 163 nM. Besides, in series [3] (MT2), the Emax turned out to be 84 ± 20%. Further, the “concentration triggering Ca2+ signals exclusively in MT2-CHO cells” value in [3] (from concentration response curves, Figure 4) was “around 1 µM”.
Take `COc1cc2c(=O)n(C)ccc2cc1OCc1cc(C)cc(C)c1` [7g, 6-(3,5-Dimethyl-benzyloxy)-7-methoxy-2-methylisoquinolin-1(2H)-one]: in [1], the midpoint of inhibition, the IC50, lay at 3470 nM; the Ki is 1050 nM; the Emax worked out at 86 ± 2%. Moreover, the “MT1 pIC50±SEM” value in [2] (setting [9]) was “NSB”. For the same compound, in series [3] (setting [10]), the EC50 was 110 nM. In addition, in series [3] (MT2), the Emax turned out to be 83 ± 6%.
For the compound `COc1cccc(COc2cc3c(=O)n(C)ccc3cc2OC)c1` [14b, 6-Methoxy-7-(3-methoxy-benzyloxy)-2-methylisoquinolin-1(2H)-one], the “displacement of pre-incubated [3H]melatonin at MT2 (in words)” value in [4] is given as “completely displaced”. In [5], the 50% inhibitory concentration (IC50) was 69.4 nM and the “MT2 %Inhmax ±SEM” value is reported as 71±6%. In series [1], the IC50 is 1000 nM, the Ki was 302 nM and the Emax was 92 ± 3%. The “MT1 pIC50±SEM” value in [2] (setting [9]) is recorded as “NSB”. Also, the “Ca2+ mobilization activity at MT1 (in words)” value in [6] was “could not produce any activity”. Also, in [7], the “MT1 IC50, inhibition of cAMP production” value is “NSR”. Further, in [3] (setting [10]), the EC50 is 48.9 nM. In series [3] (MT2), the Emax turned out to be 96 ± 16%. Also, the “fold less potent than 7b (EC50, Ca2+ signal, MT2)” value in series [3] (relative to 7b, MT2-CHO) is reported as greater than 160 fold.
For the compound `COc1cc(COc2cc3c(=O)n(C)ccc3cc2OC)cc(OC)c1` [14c, 7-(3,5-Dimethoxy-benzyloxy)-6-methoxy-2-methylisoquinolin-1(2H)-one], in series [5], the IC50 was 326 nM and the “MT2 %Inhmax ±SEM” value was 58±3%. In [1], half-maximal inhibition (IC50) required 18200 nM, the Ki was 5490 nM and the Emax amounted to 94 ± 11%. Moreover, the “MT1 pIC50±SEM” value in [2] (setting [9]) is recorded as “NSB”. For the same compound, in series [6], the “Ca2+ mobilization activity at MT1 (in words)” value was “could not produce any activity”. Further, in series [7], the “MT1 IC50, inhibition of cAMP production” value is reported as “NSR”. Further, the “Ca2+ mobilization activity at MT2 (in words)” value in series [3] (MT2-CHO cells, FLIPR) was “partial efficacy”. For the same compound, the EC50 in series [3] (setting [10]) was 228 nM. The Emax in series [3] (MT2) stood at 71 ± 17%. The “fold less potent than 7c (Ca2+ signal, MT2)” value in series [3] (relative to 7c, MT2-CHO) was found to be 11 fold.
Take `COc1ccc2c(=O)n(C)ccc2c1OCc1ccccc1` [15a, 5-Benzyloxyl-6-methoxy-2-methylisoquinolin-1(2H)-one]: the melting point was in the range of 125 to 127 °C. In series [8], the IC50 was 9120 nM, affinity was put at a Ki of 2070 nM and the Emax turned out to be 84 ± 10%. Moreover, the “Selectivity, ratio Ki(MT1)/Ki(MT2)” value in series [4] came out at 5.72. In [1], the IC50 was 1200 nM, the Ki was 362 nM and the Emax is 85 ± 8%. In series [3] (setting [10]), the EC50 is 215 nM. The Emax in [3] (MT2) is 70 ± 9%.
For the compound `COc1cccc(COc2c(OC)ccc3c(=O)n(C)ccc23)c1` [15b, 6-Methoxy-5-(3-methoxy-benzyloxy)-2-methyl-2H-isoquinolin-1-one], the IC50 is 13200 nM in series [8], 0.81 nM in series [5] and 5.5 nM in [1]. For the same compound, the Emax was 71 ± 13% in [8], 85 ± 8% in series [1] and 89 ± 20% in [3] (MT2). Besides, the “Selectivity, ratio Ki(MT1)/Ki(MT2)” value in series [4] stood at 1800. Moreover, in series [5], the “MT2 %Inhmax ±SEM” value turned out to be 61±4%. Besides, the Ki was 1.7 nM and 1.66 nM in [1]; 2980 nM in series [2] (read-out: MT1 Ki, calculated from mean pIC50 (Cheng-Prusoff), 1 nM [3H]melatonin, intact CHO cells). Also, the “Ca2+ mobilization activity at MT1 (in words)” value in series [6] is “could not produce any activity; also recorded: totally inactive”. Besides, the “MT1 IC50, inhibition of cAMP production” value in series [7] was “NSR”. Also, in [7] (forskolin-stimulated), the “inhibition of cAMP levels in MT1-CHO cells (in words)” value is “completely inactive”. In addition, the EC50 in series [3] (MT2-CHO cells, FLIPR, mean ± SEM of 3–5 trials, read-out: MT2 pEC50 ±SEM, Ca2+ mobilization (converted)) was 0.145 nM.
`COc1cc(COc2c(OC)ccc3c(=O)n(C)ccc23)cc(OC)c1` [15c, 5-(3,5-Dimethoxy-benzyloxy)-6-methoxy-2-methylisoquinolin-1(2H)-one] had a melting point of 85 to 86 °C. Further, in [8], half-maximal inhibition (IC50) was put at 9330 nM, the Ki turned out to be 2130 nM and the Emax was found to be 63 ± 4%. In series [4], the “Selectivity, ratio Ki(MT1)/Ki(MT2)” value is 50.7 and the “displacement of pre-incubated [3H]melatonin at MT2 (in words)” value is given as “almost complete displacement”. Besides, in series [4] (binding, Ki ratio), the “selectivity toward MT2 over MT1” value was 51 fold. In series [5], the IC50 is 40.6 nM and the “MT2 %Inhmax ±SEM” value turned out to be 64±3%. In addition, in [1], it took 141 nM to reach half-maximal inhibition (IC50), the Ki was 42 nM and the Emax is 94 ± 13%. Further, in [6], the “Ca2+ mobilization activity at MT1 (in words)” value is recorded as “could not produce any activity”. Moreover, in series [7], the “MT1 IC50, inhibition of cAMP production” value is on record as “NSR”. In series [3] (setting [10]), the EC50 is 4.08 nM. The Emax in series [3] (MT2) worked out at 85 ± 19%. In addition, the “fold more potent than 7c (Ca2+ signal, MT2)” value in series [3] (relative to 7c, MT2-CHO) is reported as 5 fold.
Consider `COc1ccc2c(=O)n(C)ccc2c1OCc1ccc(C)cc1` [15d, 6-Methoxy-2-methyl-5-(4-methyl-benzyloxy)-isoquinolin-1(2H)-one], for which the values for the IC50 in [8] and in [1] were 3390 nM and 9550 nM, respectively. Also, the Ki was 770 nM in series [8] and 2890 nM in series [1]. Besides, the Emax in series [8] stood at 34 ± 5%; in series [1] it was 74 ± 11%; in series [3] (MT2), 40 ± 17%. For the same compound, the “Selectivity, ratio Ki(MT1)/Ki(MT2)” value in [4] worked out at 0.27. In addition, in series [3] (setting [10]), the EC50 is 128 nM.
As for `COc1ccc2[nH]cc(CCNC(C)=O)c2c1` [MT, N-acetyl-5-methoxytryptamine, reference compound], the “MT1 %Resp±SEM (percentage of melatonin-mediated displacement of radioligand binding)” value in series [2] (relative to melatonin (MT)-mediated displacement) was 95±2%. The “MT1 %Resp ±SEM, Ca2+ signal” value in series [6] is 100±26%. Moreover, the “MT1 %Inhmax ±SEM” value was 59±2% in series [7] and 60–70% in [7] (listed as Melatonin).
For `COc1cc2ccn(C)c(=O)c2cc1O` [compound 12, 7-Hydroxy-6-methoxy-2-methylisoquinolin-1(2H)-one], the Emax at 10 µM was 36% in [6] (at 10 µM, partial activation, data not shown, read-out: maximal response, Ca2+ mobilization, MT1) and 53% in [3] (MT2, at 10 µM, partial activation, data not shown, read-out: maximal response, Ca2+ mobilization, MT2).
